{"source": "paper PMC5218480", "about": "(PLoS ONE, 2017)", "system": "MV-4-11 cells", "assay": "Gene expression microarray analysis (Affymetrix PrimeView) and GSEA", "assay_type": "cell-based, human", "parameters": "RFU PODN (11730768_x_at) / Fold change /veh PODN (11730768_x_at) / RFU LINC00158 (11744669_a_at) / Fold change /veh LINC00158 (11744669_a_at) / RFU DUSP10 (11751237_a_at) / Fold change /veh DUSP10 (11751237_a_at) / RFU ID3 (11757404_x_at) / Fold change /veh ID3 (11757404_x_at) / RFU PLEKHG5 (11737974_s_at) / Fold change /veh PLEKHG5 (11737974_s_at) / RFU LRRC4B (11730491_at) / Fold change /veh LRRC4B (11730491_at) / RFU GIMAP4 (11747438_a_at) / Fold change /veh GIMAP4 (11747438_a_at) / RFU KRT8 (11758183_x_at) / Fold change /veh KRT8 (11758183_x_at) / RFU CNN1 (11734310_a_at) / Fold change /veh CNN1 (11734310_a_at) / RFU VPS37D (11726825_at) / Fold change /veh VPS37D (11726825_at) / RFU C10orf10 (11716522_x_at) / Fold change /veh C10orf10 (11716522_x_at) / RFU KIR2DL2 /// KIR2DL4 /// KIR2DL5A /// KIR2DL5B /// KIR2DS1 /// KIR2DS2 /// KIR2DS3 /// KIR2DS4 /// KIR3DL3 /// KIR3DL3 /// KIR3DS1 (11738374_at) / Fold change /veh KIR2DL2 /// KIR2DL4 /// KIR2DL5A /// KIR2DL5B /// KIR2DS1 /// KIR2DS2 /// KIR2DS3 /// KIR2DS4 /// KIR3DL3 /// KIR3DL3 /// KIR3DS1 (11738374_at) / RFU C1QL1 (11718748_at) / Fold change /veh C1QL1 (11718748_at) / RFU TMPRSS4 (11747572_a_at) / Fold change /veh TMPRSS4 (11747572_a_at) / RFU HAMP (11756126_x_at) / Fold change /veh HAMP (11756126_x_at) / RFU RNFT2 (11725882_a_at) / Fold change /veh RNFT2 (11725882_a_at) / RFU NR4A2 (11747474_a_at) / Fold change /veh NR4A2 (11747474_a_at) / RFU ABCC12 (11746883_a_at) / Fold change /veh ABCC12 (11746883_a_at) / RFU TMEM136 (11760407_x_at) / Fold change /veh TMEM136 (11760407_x_at) / RFU CLDN22 /// WWC2 (11732394_at) / Fold change /veh CLDN22 /// WWC2 (11732394_at) / RFU HLA-DPB1 (11760878_x_at) / Fold change /veh HLA-DPB1 (11760878_x_at) / RFU SPINT1 (11716480_a_at) / Fold change /veh SPINT1 (11716480_a_at) / RFU GAP43 (11754022_s_at) / Fold change /veh GAP43 (11754022_s_at) / RFU A4GNT (11735810_at) / Fold change /veh A4GNT (11735810_at) / RFU PRB3 (11715151_x_at) / Fold change /veh PRB3 (11715151_x_at) / RFU TUBB4B (11761932_at) / Fold change /veh TUBB4B (11761932_at) / RFU CAPN14 (11732068_a_at) / Fold change /veh CAPN14 (11732068_a_at) / RFU TMCC2 (11721928_a_at) / Fold change /veh TMCC2 (11721928_a_at) / RFU IRGQ (11745062_a_at) / Fold change /veh IRGQ (11745062_a_at) / RFU FAM174B (11720279_a_at) / Fold change /veh FAM174B (11720279_a_at) / RFU TMPRSS4 (11748680_a_at) / Fold change /veh TMPRSS4 (11748680_a_at) / RFU FAM212B (11763350_a_at) / Fold change /veh FAM212B (11763350_a_at) / RFU PLEKHG5 (11743358_a_at) / Fold change /veh PLEKHG5 (11743358_a_at) / RFU ZSCAN30 (11745921_a_at) / Fold change /veh ZSCAN30 (11745921_a_at) / RFU CMKLR1 (11741424_a_at) / Fold change /veh CMKLR1 (11741424_a_at) / RFU LOC101060620 /// MAPK8IP1 (11723275_at) / Fold change /veh LOC101060620 /// MAPK8IP1 (11723275_at) / RFU SPTSSB (11747773_x_at) / Fold change /veh SPTSSB (11747773_x_at) / RFU PRSS12 (11739890_at) / Fold change /veh PRSS12 (11739890_at) / RFU BIN1 (11741810_x_at) / Fold change /veh BIN1 (11741810_x_at) / RFU WNT11 (11732464_a_at) / Fold change /veh WNT11 (11732464_a_at) / RFU C10orf10 (11716521_a_at) / Fold change /veh C10orf10 (11716521_a_at) / RFU C5orf56 (11738089_at) / Fold change /veh C5orf56 (11738089_at) / RFU CYB561 (11721691_x_at) / Fold change /veh CYB561 (11721691_x_at) / RFU ANKRD19P (11752326_a_at) / Fold change /veh ANKRD19P (11752326_a_at) / RFU OR2T12 /// OR2T33 /// OR2T8 (11738714_s_at) / Fold change /veh OR2T12 /// OR2T33 /// OR2T8 (11738714_s_at) / RFU VCAN (11748164_a_at) / Fold change /veh VCAN (11748164_a_at) / RFU JSRP1 (11732532_at) / Fold change /veh JSRP1 (11732532_at) / RFU KRTAP10-11 (11738290_x_at) / Fold change /veh KRTAP10-11 (11738290_x_at) / RFU MYO3A (11730013_a_at) / Fold change /veh MYO3A (11730013_a_at) / RFU EBF3 (11725865_a_at) / Fold change /veh EBF3 (11725865_a_at) / RFU CAMK2N1 (11719241_x_at) / Fold change /veh CAMK2N1 (11719241_x_at) / RFU C5orf56 (11738088_a_at) / Fold change /veh C5orf56 (11738088_a_at) / RFU OLFML3 (11715873_a_at) / Fold change /veh OLFML3 (11715873_a_at) / RFU LOC100653217 /// NTM (11731650_a_at) / Fold change /veh LOC100653217 /// NTM (11731650_a_at) / RFU MAPK11 (11762145_a_at) / Fold change /veh MAPK11 (11762145_a_at) / RFU FIZ1 (11724087_x_at) / Fold change /veh FIZ1 (11724087_x_at) / RFU OASL (11726364_x_at) / Fold change /veh OASL (11726364_x_at) / RFU SOX15 (11748057_x_at) / Fold change /veh SOX15 (11748057_x_at) / RFU CD79A (11719716_a_at) / Fold change /veh CD79A (11719716_a_at) / RFU HIST1H1D (11736915_at) / Fold change /veh HIST1H1D (11736915_at) / RFU CASKIN2 (11723855_a_at) / Fold change /veh CASKIN2 (11723855_a_at) / RFU LOC730098 (11760151_x_at) / Fold change /veh LOC730098 (11760151_x_at) / RFU OR4N2 (11742367_at) / Fold change /veh OR4N2 (11742367_at) / RFU PRRT2 (11749266_a_at) / Fold change /veh PRRT2 (11749266_a_at) / RFU SNX32 (11753110_a_at) / Fold change /veh SNX32 (11753110_a_at) / RFU CDHR5 (11726645_a_at) / Fold change /veh CDHR5 (11726645_a_at) / RFU RCAN1 (11760418_a_at) / Fold change /veh RCAN1 (11760418_a_at) / RFU FAM167A (11723789_a_at) / Fold change /veh FAM167A (11723789_a_at) / RFU FAM26E (11764081_at) / Fold change /veh FAM26E (11764081_at) / RFU ISYNA1 (11749810_s_at) / Fold change /veh ISYNA1 (11749810_s_at) / RFU ACY1 (11761880_at) / Fold change /veh ACY1 (11761880_at) / RFU 11764098_at / Fold change /veh 11764098_at / RFU SAMD14 (11745864_x_at) / Fold change /veh SAMD14 (11745864_x_at) / RFU NPB (11741838_a_at) / Fold change /veh NPB (11741838_a_at) / RFU TMPRSS6 (11731388_a_at) / Fold change /veh TMPRSS6 (11731388_a_at) / RFU KRTAP10-2 (11738614_at) / Fold change /veh KRTAP10-2 (11738614_at) / RFU ARHGAP8 /// PRR5-ARHGAP8 (11727945_x_at) / Fold change /veh ARHGAP8 /// PRR5-ARHGAP8 (11727945_x_at) / RFU KRTAP5-7 /// NADSYN1 (11734609_at) / Fold change /veh KRTAP5-7 /// NADSYN1 (11734609_at) / RFU RASL12 (11751679_a_at) / Fold change /veh RASL12 (11751679_a_at) / RFU CDKN2B (11736163_a_at) / Fold change /veh CDKN2B (11736163_a_at) / RFU PRF1 (11729649_at) / Fold change /veh PRF1 (11729649_at) / RFU, ZNF638 /// ZNF638-IT1 / Fold change vs veh, ZNF638 /// ZNF638-IT1 / RFU, PANK3 / Fold change vs veh, PANK3 / RFU, SH3YL1 / Fold change vs veh, SH3YL1 / RFU, ZEB2 / Fold change vs veh, ZEB2 / RFU, NRIP1 / Fold change vs veh, NRIP1 / RFU, PTTG1IP / Fold change vs veh, PTTG1IP / RFU, CAPN2 / Fold change vs veh, CAPN2 / RFU, MED14 / Fold change vs veh, MED14 / RFU, SNORA58 / Fold change vs veh, SNORA58 / RFU, C1orf63 / Fold change vs veh, C1orf63 / RFU, LRRFIP1 / Fold change vs veh, LRRFIP1 / RFU, NDUFAF7 / Fold change vs veh, NDUFAF7 / RFU, SLC12A2 / Fold change vs veh, SLC12A2 / RFU, IBTK / Fold change vs veh, IBTK / RFU, ESF1 / Fold change vs veh, ESF1 / Fold change vs veh, TMEM50B / RFU, TAOK1 / Fold change vs veh, TAOK1 / RFU, ACBD3 / Fold change vs veh, ACBD3 / RFU, TMA16 / Fold change vs veh, TMA16 / RFU, RWDD3 / Fold change vs veh, RWDD3 / RFU, BCAT1 / Fold change vs veh, BCAT1 / RFU, EDEM3 / Fold change vs veh, EDEM3 / RFU, TMEM33 / Fold change vs veh, TMEM33 / RFU, WDR75 / Fold change vs veh, WDR75 / RFU, AHCTF1 / Fold change vs veh, AHCTF1 / RFU, TFRC / Fold change vs veh, TFRC / RFU, ZDHHC17 / Fold change vs veh, ZDHHC17 / RFU, NOM1 / Fold change vs veh, NOM1 / RFU, ARL8B / Fold change vs veh, ARL8B / RFU, ZBTB11 / Fold change vs veh, ZBTB11 / RFU, TAMM41 / Fold change vs veh, TAMM41 / RFU, KIAA1704 /// LOC100996395 / Fold change vs veh, KIAA1704 /// LOC100996395 / RFU, ING1 / Fold change vs veh, ING1 / RFU, TRMT61B / Fold change vs veh, TRMT61B / RFU, FUBP3 / Fold change vs veh, FUBP3 / RFU, TP53 / Fold change vs veh, TP53 / RFU, TNKS2 / Fold change vs veh, TNKS2 / RFU, ZFP14 / Fold change vs veh, ZFP14 / RFU, ACTR2 / Fold change vs veh, ACTR2 / RFU, PPP3R1 / Fold change vs veh, PPP3R1 / RFU, PIK3R1 / Fold change vs veh, PIK3R1 / RFU, HNRNPA1 / Fold change vs veh, HNRNPA1 / RFU, RNF170 / Fold change vs veh, RNF170 / RFU, ZNF28 / Fold change vs veh, ZNF28 / RFU, RNGTT / Fold change vs veh, RNGTT / RFU, OGT / Fold change vs veh, OGT / RFU, BRD1 / Fold change vs veh, BRD1 / RFU, MARS / Fold change vs veh, MARS / RFU, ZNF655 / Fold change vs veh, ZNF655 / RFU, FAHD1 / Fold change vs veh, FAHD1 / RFU, BDP1 / Fold change vs veh, BDP1 / RFU, LRRCC1 / Fold change vs veh, LRRCC1 / RFU, ARID1A / Fold change vs veh, ARID1A / RFU, ZNF146 / Fold change vs veh, ZNF146 / RFU, ZNF330 / Fold change vs veh, ZNF330 / RFU, GPN3 / Fold change vs veh, GPN3 / RFU, C9orf123 / Fold change vs veh, C9orf123 / RFU, N4BP2L2 / Fold change vs veh, N4BP2L2 / RFU, ARFIP1 / Fold change vs veh, ARFIP1 / RFU, FAM179B / Fold change vs veh, FAM179B / RFU, BCL10 / Fold change vs veh, BCL10 / RFU, UHRF1BP1L / Fold change vs veh, UHRF1BP1L / RFU, BET1 / Fold change vs veh, BET1 / RFU, CNOT2 / Fold change vs veh, CNOT2 / RFU, ZNF268 / Fold change vs veh, ZNF268 / Fold change vs veh, ZNF507 / RFU, DGCR2 / Fold change vs veh, DGCR2 / RFU, WDSUB1 / Fold change vs veh, WDSUB1 / Fold change vs veh, HSP90B1 /// MIR3652 / RFU, ADSS / Fold change vs veh, ADSS / RFU, GK / Fold change vs veh, GK / RFU, ZNF148 / Fold change vs veh, ZNF148 / RFU, TAF9 / Fold change vs veh, TAF9 / RFU, SLC1A5 / Fold change vs veh, SLC1A5 / RFU, SLMO2 / Fold change vs veh, SLMO2 / RFU, ABCC4 / Fold change vs veh, ABCC4 / RFU, LOC101060439 /// RAP1B / Fold change vs veh, LOC101060439 /// RAP1B / RFU, RFX7 / Fold change vs veh, RFX7 / RFU, GTPBP10 / Fold change vs veh, GTPBP10 / RFU, CNEP1R1 / Fold change vs veh, CNEP1R1 / RFU, BIVM-ERCC5 /// ERCC5 / Fold change vs veh, BIVM-ERCC5 /// ERCC5 / RFU, ILF3 / Fold change vs veh, ILF3 / RFU 11762660_at / Fold change /veh 11762660_at / RFU VCAN (11757783_s_at) / Fold change /veh VCAN (11757783_s_at) / RFU DDX43 (11728927_at) / Fold change /veh DDX43 (11728927_at) / RFU KRT8 (11758188_x_at) / Fold change /veh KRT8 (11758188_x_at) / RFU NKD1 (11759106_at) / Fold change /veh NKD1 (11759106_at) / RFU SRD5A1 (11742802_a_at) / Fold change /veh SRD5A1 (11742802_a_at) / RFU TPSAB1 /// TPSB2 (11721975_s_at) / Fold change /veh TPSAB1 /// TPSB2 (11721975_s_at) / RFU GSTM3 (11746129_a_at) / Fold change /veh GSTM3 (11746129_a_at) / RFU IL23R (11737362_x_at) / Fold change /veh IL23R (11737362_x_at) / RFU TMEM51 (11727254_a_at) / Fold change /veh TMEM51 (11727254_a_at) / RFU PIWIL2 (11732686_x_at) / Fold change /veh PIWIL2 (11732686_x_at) / RFU ORM1 (11744905_x_at) / Fold change /veh ORM1 (11744905_x_at) / RFU CCDC152 (11743942_at) / Fold change /veh CCDC152 (11743942_at) / RFU ECM1 (11717891_a_at) / Fold change /veh ECM1 (11717891_a_at) / RFU IL23R (11748794_a_at) / Fold change /veh IL23R (11748794_a_at) / RFU TNFAIP8L3 (11732012_x_at) / Fold change /veh TNFAIP8L3 (11732012_x_at) / RFU MBOAT4 (11741988_at) / Fold change /veh MBOAT4 (11741988_at) / RFU 11764193_at / Fold change /veh 11764193_at / RFU TMEM53 (11763286_at) / Fold change /veh TMEM53 (11763286_at) / RFU MAGEB2 (11727129_at) / Fold change /veh MAGEB2 (11727129_at) / RFU TMEM200A (11744735_a_at) / Fold change /veh TMEM200A (11744735_a_at) / RFU CCDC152 (11751479_a_at) / Fold change /veh CCDC152 (11751479_a_at) / RFU FAM211A (11726209_a_at) / Fold change /veh FAM211A (11726209_a_at) / RFU RGS16 (11746705_a_at) / Fold change /veh RGS16 (11746705_a_at) / RFU VCAN (11755009_s_at) / Fold change /veh VCAN (11755009_s_at) / RFU RHOB (11743442_s_at) / Fold change /veh RHOB (11743442_s_at) / RFU RGS16 (11720943_a_at) / Fold change /veh RGS16 (11720943_a_at) / RFU RGS16 (11720944_at) / Fold change /veh RGS16 (11720944_at) / RFU, VPS4B / Fold change vs veh, VPS4B / RFU, CREB1 / Fold change vs veh, CREB1 / RFU, DNAJC13 / Fold change vs veh, DNAJC13 / RFU, GNAQ / Fold change vs veh, GNAQ / RFU, CDK5R1 / Fold change vs veh, CDK5R1 / RFU, ZRANB3 / Fold change vs veh, ZRANB3 / RFU, CUL4A / Fold change vs veh, CUL4A / RFU, CCNY / Fold change vs veh, CCNY / RFU, UFL1 / Fold change vs veh, UFL1 / RFU, COG3 / Fold change vs veh, COG3 / RFU, DIAPH2 / Fold change vs veh, DIAPH2 / RFU, SKA2 / Fold change vs veh, SKA2 / RFU, AFF3 / Fold change vs veh, AFF3 / RFU, LMF1 / Fold change vs veh, LMF1 / RFU, IPO11 / Fold change vs veh, IPO11 / RFU, DFFB / Fold change vs veh, DFFB / RFU, FOXP1 / Fold change vs veh, FOXP1 / RFU, CARD8 / Fold change vs veh, CARD8 / RFU, STRN3 / Fold change vs veh, STRN3 / RFU, ADK / Fold change vs veh, ADK / RFU, RASSF2 / Fold change vs veh, RASSF2 / RFU, WIPF1 / Fold change vs veh, WIPF1 / RFU, LARP1B / Fold change vs veh, LARP1B / RFU, RASA1 / Fold change vs veh, RASA1 / RFU, RB1 / Fold change vs veh, RB1 / RFU, PPFIA1 / Fold change vs veh, PPFIA1 / RFU, MAT2A / Fold change vs veh, MAT2A / RFU, CCT5 / Fold change vs veh, CCT5 / RFU, WDR92 / Fold change vs veh, WDR92 / RFU, CUX1 / Fold change vs veh, CUX1 / RFU, TTC7A / Fold change vs veh, TTC7A / RFU, TMEM135 / Fold change vs veh, TMEM135 / RFU, DEPTOR / Fold change vs veh, DEPTOR / RFU, CPM / Fold change vs veh, CPM / RFU, DNAJB6 / Fold change vs veh, DNAJB6 / RFU, CACNA2D3 / Fold change vs veh, CACNA2D3 / RFU, DTX4 / Fold change vs veh, DTX4 / RFU, TFCP2 / Fold change vs veh, TFCP2 / RFU, GMCL1 /// GMCL1P1 / Fold change vs veh, GMCL1 /// GMCL1P1 / RFU, AEBP2 / Fold change vs veh, AEBP2 / RFU, SNHG1 /// SNORD22 /// SNORD25 /// SNORD26 /// SNORD27 /// SNORD28 /// SNORD29 /// SNORD31 / Fold change vs veh, SNHG1 /// SNORD22 /// SNORD25 /// SNORD26 /// SNORD27 /// SNORD28 /// SNORD29 /// SNORD31 / Fold change (Aza/veh), C12orf56 (ProbeSet 11735607_a_at) / Fold change (ACY-1035/veh), C12orf56 (ProbeSet 11735607_a_at) / Fold change (Aza/veh), FGFR1OP (ProbeSet 11751329_s_at) / Fold change (ACY-1035/veh), FGFR1OP (ProbeSet 11751329_s_at) / Fold change (Aza/veh), VPS36 (ProbeSet 11739960_a_at) / Fold change (ACY-1035/veh), VPS36 (ProbeSet 11739960_a_at) / RFU SYPL1 (11715823_x_at) / Fold change /veh SYPL1 (11715823_x_at) / RFU IGFBP7 (11715501_s_at) / Fold change /veh IGFBP7 (11715501_s_at) / RFU REEP3 (11722064_at) / Fold change /veh REEP3 (11722064_at) / RFU IGLL1 (11728026_x_at) / Fold change /veh IGLL1 (11728026_x_at): dose or concentration left out as unconfirmed", "settings": "ProbeSet 11739263_x_at; LIST D"}
{"smiles": "Nc1ccc(-c2cccs2)cc1NC(=O)c1ccc2c(c1)cc(C1CC1)n2CCN1CCOCC1", "note": "[ACY-1035]", "values": [{"measurement": "Fold change vs veh, VPS4B", "value": 0.95}]}
